# Source: US20260347435A1, “y-SECRETASE INHIBITOR, Aß-PEPTIDE PRODUCTION INHIBITOR, AND PHARMACEUTICAL” (priority 2022, published 2026)
# Experiments:
# [1] = target: T1, human γ-secretase complex, APP as substrate (Homo sapiens, UniProt P49768); assay: β-galactosidase assay of γ-secretase-expressing yeast with related-art GSI, APP substrate; type: cell-based
# T1 construct: substrate APPC55-Gal4, β-galactosidase reporter
# Protocol: The yeast expressing the γ-secretase complex, the substrate APPC55-Gal4, and the three-finger toxin produced in the foregoing was inoculated in 1.5 mL of a SD-LWU medium, and the resultant was shake-cultured (180 rpm) at 30 °C until its turbidity became from 0.8 to 1.0. After that, the cultured product was centrifuged (15,000 rpm, 3 minutes, room temperature), and cells were recovered. The cells were washed with 1 mL of cooling water, and were then suspended in 30 μL of a Lysis buffer (20 mM Tris-HCl, pH: 8.0, 10 mM MgCl2, 50 mM KCl, 1 mM EDTA, 5% glycerol, and 1 mM DTT), followed by the addition of an appropriate amount of acid-treated glass beads (425 μm to 600 μm, Sigma-Aldrich Co. LLC) thereto. After that, the mixture was stirred with a vortex mixer so that the cells were crushed. The crushed liquid was centrifuged (15,000 rpm, 10 minutes, 4 °C) to provide a lysate. 80 Microliters of 4 mg/ml ortho-nitrophenyl-β-galactoside (ONPG) was added to the mixed liquid of 10 μL of the lysate and 400 μL of a Z buffer (60 mM Na2HPO4, 40 mM NaH2PO4-2H2O, 10 mM KCl, 1 mM MgSO4-7H2O, and 0.27% 2-mercaptoethanol) to start a reaction. […] After that, the absorbance (A420) of nitrophenol produced in the reaction liquid at 420 nm was measured. Further, the protein concentration of the lysate was determined by a Bradford method (Bio-Rad Laboratories, Inc.), and β-galactosidase activity was calculated [β-galactosidase unit/mg protein=1,000×A420/{time (min)×protein concentration (mg/μL)×liquid amount (μL)}].
# [2] = target: T2, human γ-secretase complex, Notch1 as substrate (Homo sapiens, UniProt P49768); assay: β-galactosidase assay of γ-secretase-expressing yeast with related-art GSI, Notch substrate; type: cell-based; conditions: yeast (FIG. 7)
# T2 construct: substrate mouse Notch1(1704-1755)-Gal4, β-galactosidase reporter
# Protocol: The yeast expressing the γ-secretase complex, the substrate Notch-Gal4, and the three-finger toxin produced in the foregoing was inoculated in 15 mL of a SD-LWU medium, and the resultant was shake-cultured (180 rpm) at 30 °C until its turbidity became from 0.8 to 1.0. After that, a 1.5 mL aliquot of the cultured product was dispensed and centrifuged (15,000 rpm, 3 minutes, room temperature), and cells were recovered. The cells were washed with 1 mL of cooling water, and were then suspended in 30 μL of a Lysis buffer (20 mM Tris-HCl, pH: 8.0, 10 mM MgCl2, 50 mM KCl, 1 mM EDTA, 5% glycerol, and 1 mM DTT), followed by the addition of an appropriate amount of acid-treated glass beads (425 μm to 600 μm, Sigma-Aldrich Co. LLC) thereto. After that, the mixture was stirred with a vortex mixer so that the cells were crushed. The crushed liquid was centrifuged (15,000 rpm, 10 minutes, 4 °C) to provide a lysate. […] After that, the absorbance (A420) of nitrophenol produced in the reaction liquid at 420 nm was measured. Further, the protein concentration of the lysate was determined by a Bradford method (Bio-Rad Laboratories, Inc.), and β-galactosidase activity was calculated: β-galactosidase unit/mg protein=1,000×A420/{time (min)×protein concentration (mg/μL)×liquid amount (μL)}.
# [3] = test system: γ-secretase; conditions: verification experiment; pseudo-inhibitor; cited from earlier work
# [4] = test system: γ-secretase; conditions: phase III clinical trials; trials stopped; cited from earlier work
smiles,measurement,setting,value
C[C@H](NC(=O)Cc1cc(F)cc(F)c1)C(=O)N[C@H](C(=O)OC(C)(C)C)c1ccccc1 [DAPT],suppression of the cleavage of the APP,[1]; yeast (FIG. 7),suppressed the cleavage of each of the APP and the Notch
same,suppression of the cleavage of the Notch,[2],suppressed the cleavage of each of the APP and the Notch
CC(C)[C@H](O)C(=O)N[C@@H](C)C(=O)N[C@@H]1C(=O)N(C)CCc2ccccc21 [semagacestat],discharge of a decomposition product to the outside of a cell,[3],inhibits the discharge of a decomposition product to the outside of a cell
same,inhibition of Aβ production,[3],does not inhibit Aβ production
same,serious side effects and deterioration of a cognitive function,[4],serious side effects and the deterioration of a cognitive function were observed
NC(=O)[C@@H](CCC(F)(F)F)N(Cc1ccc(-c2ncon2)cc1F)S(=O)(=O)c1ccc(Cl)cc1 [avagacestat],serious side effects and deterioration of a cognitive function,[4],serious side effects and the deterioration of a cognitive function were observed
O=S(=O)(N[C@H](CO)C(C(F)(F)F)C(F)(F)F)c1ccc(Cl)s1 [begacestat],suppression of the cleavage of the APP versus the cleavage of the Notch,"[1]; 1 μM, 3 μM, and 10 μM, wild-type yeast and pdr1Δpdr3Δ strain, vs mock with dimethyl sulfoxide (FIG. 7)",the suppression of the cleavage of the APP was stronger than the suppression of the cleavage of the Notch
same,APP-specific cleavage-suppressing effect,"[1]; yeast, APP versus Notch cleavage (FIG. 7)",APP-specific inhibition by begacestat was observed
